Patent US10519177B2, “Heterocyclic compounds and uses thereof” (Plexxikon Inc., priority 2013, dated 2019)
Like-named read-outs stand apart in the source and are kept apart here.

Key:
MV-4-11 cells = test: Oncology cell growth assay MV-4-11 (CellTiter Glo); assay type: cell-based; settings: Homo sapiens, MV4-11, 72 h, read-out: Cell activity (IC50 μM) MV-4-11 3d-Growth
Summary of the method: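 MV-4-11 AML cells (MLL-AF4), 3000 per well, exposed to 8-point 1:3 compound titration from 10 μM top concentration (0.2% DMSO) for 72 h. Viability by CellTiter Glo luminescence, normalized to DMSO controls; pIC50 from four-parameter curve fit.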

BRD4-BD12 (1-477) = BRD4-BD12 (1-477) (Homo sapiens (Human), UniProt O60885); test: Alphascreen binding assay BRD4-BD12; settings: BRD4(1 2) H4; read-out: Biochemical activity (IC50 μM) BRD4(1 2) H4
Summary of the method: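 First, compound was preincubated 1 h at room temperature with the His-tagged BRD4 protein (BD1 44-164 or tandem BD12 1-477) and acetylated H4 peptide. Next, donor and acceptor beads were added at 7.5 μg/ml final. After 30 min, AlphaScreen emission was recorded.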

bromodomain = test: at least one of the bromodomain cell assays of Example 57; assay type: cell-based; settings: at least one of the bromodomain cell assays described in Example 57; read-out: IC50 in at least one of the bromodomain cell assays

Row | Compound | IC50 (MV-4-11 cells) [µM] | IC50 (BRD4-BD12 (1-477)) [µM] | IC50 (bromodomain) [nM] | IC50 (MV-4-11 cells; MV-4-11, 3d growth) [µM]
1 | [2H]C([2H])(C1CC(F)(F)C1)n1cc(I)c2ncc(-c3c(C)noc3C)cc21 [P-0254, 4-[1-[dideuterio-(3,3-difluorocyclobutyl)methyl]-3-iodo-pyrrolo[3,2-b]pyridin-6-yl]-3,5-dimethyl-isoxazole] | < 1 | < 1 | < 10000 | –
2 | Cc1noc(C)c1-c1cnc2c(c1)c(Cc1ccccc1Cl)cn2-c1ccc(C(=O)O)cn1 [P-0428, 6-[3-[(2-chlorophenyl)methyl]-5-(3,5-dimethylisoxazol-4-yl)pyrrolo[2,3-b]pyridin-1-yl]pyridine-3-carboxylic acid] | – | < 1 | < 10000 | 1 to 10
3 | Cc1noc(C)c1-c1cnc2c(-c3ccc(OCC(=O)O)cc3)cn(CC3(F)CCCCC3)c2c1 [P-0503, 2-[4-[6-(3,5-dimethylisoxazol-4-yl)-1-[(1-fluorocyclohexyl)methyl]pyrrolo[3,2-b]pyridin-3-yl]phenoxy]acetic acid] | – | < 1 | < 10000 | < 1
4 | Cc1noc(C)c1-c1cnc2c(-c3ccc(C#N)nc3)cn(C(c3ccccn3)c3ccccn3)c2c1 [P-0597, 5-[1-[bis(2-pyridyl)methyl]-6-(3,5-dimethylisoxazol-4-yl)pyrrolo[3,2-b]pyridin-3-yl]pyridine-2-carbonitrile] | – | < 1 | < 10000 | < 1
5 | Cc1noc(C)c1-c1cnc2c(-c3ccc4[nH]ncc4c3)cn(CC3(F)CCCCC3)c2c1 [P-0499, 4-[1-[(1-fluorocyclohexyl)methyl]-3-(1H-indazol-5-yl)pyrrolo[3,2-b]pyridin-6-yl]-3,5-dimethyl-isoxazole] | – | < 1 | < 10000 | < 1
6 | Cc1noc(C)c1-c1cnc2c(-c3ccc(-c4nnn[nH]4)cc3)cn(CC3(F)CCC(F)(F)CC3)c2c1 [P-0461, 3,5-dimethyl-4-[3-[4-(1H-tetrazol-5-yl)phenyl]-1-[(1,4,4-trifluorocyclohexyl)methyl]pyrrolo[3,2-b]pyridin-6-yl]isoxazole] | – | < 1 | < 10000 | < 1
7 | Cc1noc(C)c1-c1cnc2c(-c3cnn(CC(F)(F)F)c3)cn([C@H](C)c3ccccn3)c2c1 [P-0513, 3,5-dimethyl-4-[1-[(1R)-1-(2-pyridyl)ethyl]-3-[1-(2,2,2-trifluoroethyl)pyrazol-4-yl]pyrrolo[3,2-b]pyridin-6-yl]isoxazole] | – | < 1 | < 10000 | < 1
8 | Cc1noc(C)c1-c1cnc2c(-c3cnn(CC(F)(F)F)c3)cn(Cc3ccc(Cl)cc3)c2c1 [P-0365, 4-[1-[(4-chlorophenyl)methyl]-3-[1-(2,2,2-trifluoroethyl)pyrazol-4-yl]pyrrolo[3,2-b]pyridin-6-yl]-3,5-dimethyl-isoxazole] | < 1 | < 1 | < 10000 | –
9 | Cc1noc(C)c1-c1cnc2c(-c3ccc4c(c3)CNC4=O)cn(CC3(F)CCCCC3)c2c1 [P-0505, 5-[6-(3,5-dimethylisoxazol-4-yl)-1-[(1-fluorocyclohexyl)methyl]pyrrolo[3,2-b]pyridin-3-yl]isoindolin-1-one] | – | < 1 | < 10000 | < 1
10 | Cc1noc(C)c1-c1cnc2c(-c3cnn(C(F)F)c3)cn(C(C)c3ccccn3)c2c1 (stereo not drawn) [P-0361, 4-[3-[1-(difluoromethyl)pyrazol-4-yl]-1-[1-(2-pyridyl)ethyl]pyrrolo[3,2-b]pyridin-6-yl]-3,5-dimethyl-isoxazole] | < 1 | < 1 | < 10000 | –
11 | Cc1noc(C)c1-c1cnc2c(-c3ccc(C#N)cc3)cn(CC3(F)CCC(F)(F)CC3)c2c1 [P-0458, 4-[6-(3,5-dimethylisoxazol-4-yl)-1-[(1,4,4-trifluorocyclohexyl)methyl]pyrrolo[3,2-b]pyridin-3-yl]benzonitrile] | – | < 1 | < 10000 | < 1
12 | Cc1noc(C)c1-c1cnc2c(-c3ccc(C#N)cc3)cn(C(c3ccccn3)c3ccccn3)c2c1 [P-0592, 4-[1-[bis(2-pyridyl)methyl]-6-(3,5-dimethylisoxazol-4-yl)pyrrolo[3,2-b]pyridin-3-yl]benzonitrile] | – | < 1 | < 10000 | < 1
13 | Cc1noc(C)c1-c1cnc2c(-c3ccc(C4(C(=O)O)CC4)cc3)cn(CC3(F)CCCCC3)c2c1 [P-0385, 1-[4-[6-(3,5-dimethylisoxazol-4-yl)-1-[(1-fluorocyclohexyl)methyl]pyrrolo[3,2-b]pyridin-3-yl]phenyl]cyclopropanecarboxylic acid] | < 1 | < 1 | < 10000 | –
14 | Cc1nnn(C)c1-c1cnc2c(-c3ccc(S(N)(=O)=O)cc3)cn(CC3(F)CCCCC3)c2c1 [P-0479, 4-[6-(3,5-dimethyltriazol-4-yl)-1-[(1-fluorocyclohexyl)methyl]pyrrolo[3,2-b]pyridin-3-yl]benzenesulfonamide] | – | < 1 | < 10000 | < 1
15 | Cc1noc(C)c1-c1cnc2c(I)cn([C@@H](C)c3ccccn3)c2c1 [P-0572, 4-[3-iodo-1-[(1S)-1-(2-pyridyl)ethyl]pyrrolo[3,2-b]pyridin-6-yl]-3,5-dimethyl-isoxazole] | – | < 1 | < 10000 | < 1
16 | Cc1noc(C)c1-c1cnc2c(-c3ccnc(C4CC4)c3)cn(CC3CCC(F)(F)CC3)c2c1 [P-0407, 4-[3-(2-cyclopropyl-4-pyridyl)-1-[(4,4-difluorocyclohexyl)methyl]pyrrolo[3,2-b]pyridin-6-yl]-3,5-dimethyl-isoxazole] | < 1 | < 1 | < 10000 | –
17 | Cc1noc(C)c1-c1cnc2c(-c3csc(C(=O)O)c3)cn(CC3CCC(F)(F)CC3)c2c1 [P-0484, 4-[1-[(4,4-difluorocyclohexyl)methyl]-6-(3,5-dimethylisoxazol-4-yl)pyrrolo[3,2-b]pyridin-3-yl]thiophene-2-carboxylic acid] | – | < 1 | < 10000 | < 1
18 | COC(=O)c1ccc(-c2cn(Cc3cccnn3)c3cc(-c4c(C)noc4C)cnc23)cc1 [P-0539, methyl 4-[6-(3,5-dimethylisoxazol-4-yl)-1-(pyridazin-3-ylmethyl)pyrrolo[3,2-b]pyridin-3-yl]benzoate] | – | < 1 | < 10000 | < 1
19 | Cc1noc(C)c1-c1cnc2c(-c3ccc(O)c(F)c3)cn(CC3(F)CCCCC3)c2c1 [P-0500, 4-[6-(3,5-dimethylisoxazol-4-yl)-1-[(1-fluorocyclohexyl)methyl]pyrrolo[3,2-b]pyridin-3-yl]-2-fluoro-phenol] | – | < 1 | < 10000 | < 1
20 | Cc1noc(C)c1-c1cnc2c(-c3ccc(C(=O)O)cc3)cn(CC3(F)CCCCC3)c2c1 [P-0367, 4-[6-(3,5-dimethylisoxazol-4-yl)-1-[(1-fluorocyclohexyl)methyl]pyrrolo[3,2-b]pyridin-3-yl]benzoic acid] | < 1 | < 1 | < 10000 | –
21 | COc1ncc(-c2cn(CC3(F)CCCCC3)c3cc(-c4c(C)noc4C)cnc23)cn1 [P-0464, 4-[1-[(1-fluorocyclohexyl)methyl]-3-(2-methoxypyrimidin-5-yl)pyrrolo[3,2-b]pyridin-6-yl]-3,5-dimethyl-isoxazole] | – | < 1 | < 10000 | < 1
